Columns and labels:
Type in all cases: in vivo, human
[1] = tested on: panelists; experiment: Panel taste test: longevity of cooling in the mouth (Table 1); settings: solutions tasted at the chosen concentration; time until no cooling could be sensed in the mouth
Description: In a second experiment, the same panel was asked to taste the solutions at the chosen concentrations and to record the cooling intensity at regular time intervals until no cooling could be sensed in the mouth.

[2] = tested on: panelists; experiment: Panel taste test: concentration with cooling intensity similar or slightly higher than menthol at 2 ppm (Table 1); settings: solution judged to have cooling intensity similar or slightly higher than menthol at 2 ppm; tasted by small panel
[3] = tested on: mouth; experiment: Application in toothpaste; settings: toothgel with 2.5 g per 100 g of a 2% solution in PG; teeth brushed, mouth rinsed with water
Description: [table] The materials are mixed in the toothgel, and a panelist's teeth are brushed using this toothgel. The mouth is rinsed with water and the water spit out. […] The cooling perception lasts for several hours.

[4] = tested on: panelists; experiment: Testing of compounds: panel tasting of aqueous solutions against menthol at 2 ppm (Table 2); settings: for Concentration [ppm]: aqueous solution (compound dissolved in ethanol at 1% by weight, then dosed into water), cooling intensity similar to or slightly higher than menthol at 2 ppm; for Description: panel description of the aqueous solution at the concentration listed in Table 2, reference menthol 2 ppm
Description: A small group of panelists were asked to taste various aqueous solutions of compounds. The compounds were first dissolved in ethanol at 1% by weight and then dosed into water.

SMILES	Concentration [ppm] [4] [ppm]	Description [4]	also measured
CC1CCC(C(C)C)C(C(=O)Nc2ccc(CC#N)cc2)C1 (centres unmarked) [Example 1, N-(4-cyanomethylphenyl) p-menthanecarboxamide]	–	–	Longevity [1]: 93 min; Concentration [2]: 0.2 ppm
CC(C)[C@@H]1CC[C@@H](C)C[C@H]1O [Example 1-Menthol, (1R, 2S, 5R)-2-isopropyl-5-methyl-cyclohexanol, reference compound]	–	–	Longevity [1]: 35 min; Concentration [2]: 2.0 ppm
CC1CCC(C(C)C)C(C(=O)Nc2ccc(S(N)(=O)=O)cc2)C1 (centres unmarked) [Example 2, N-(4-sulfamoylphenyl) p-menthanecarboxamide]	–	–	Cooling sensation felt in the mouth [3]: intense cooling sensation; Duration of cooling perception [3]: several hours
CC1CCC(C(C)C)C(C(=O)Nc2ccc(C#N)cc2)C1 (centres unmarked) [Example 3, N-(4-cyanophenyl) p-menthanecarboxamide]	–	–	Longevity [1]: 90 min; Concentration [2]: 0.5 ppm
CC(C)Oc1ccc(CNC(=O)[C@@H]2C[C@H](C)CC[C@H]2C(C)C)cc1 [Example 7, (1R,2S,5R)-N-(4-isopropoxybenzyl)-2-isopropyl-5-methylcyclohexanecarboxamide]	0.01	–	–
COC(=O)c1ccc(NC(=O)[C@@H]2C[C@H](C)CC[C@H]2C(C)C)cc1OC [Example 9, methyl 4-((1R,2S,5R)-2-isopropyl-5-methylcyclohexane-carboxamido)-2-methoxybenzoate]	0.005	–	–
COC(=O)c1ccc(NC(=O)[C@@H]2C[C@H](C)CC[C@H]2C(C)C)cc1 [Example 15, methyl 4-((1R,2S,5R)-2-isopropyl-5-methylcyclohexane-carboxamido)benzoate]	2	slightly cooling, flat cooling	–
CCOC(=O)c1ccc(NC(=O)[C@@H]2C[C@H](C)CC[C@H]2C(C)C)cc1 [Example 16, ethyl 4-((1R,2S,5R)-2-isopropyl-5-methylcyclohexane-carboxamido)benzoate]	2	Cooling similar to menthol	–
CC(C)[C@@H]1CC[C@@H](C)C[C@H]1C(=O)Nc1ccc(C=O)cc1 [Example 19, (1R,2S,5R)-N-(4-formylphenyl)-2-isopropyl-5-methylcyclo-hexanecarboxamide]	2	cooling builds and lingers	–
CC(C)[C@@H]1CC[C@@H](C)C[C@H]1C(=O)Nc1ccc(C(=O)O)cc1 [Example 23, 4-((1R,2S,5R)-2-isopropyl-5-methylcyclohexane-carboxamido)benzoic acid]	2	slightly burning then cooling	–
CC(C)[C@@H]1CC[C@@H](C)C[C@H]1C(=O)NCc1ccc(C(=O)O)cc1 [Example 24, 4-(((1R,2S,5R)-2-isopropyl-5-methylcyclohexane-carboxamido)methyl)benzoic acid]	2	little cooling, slightly refreshing	–
CC(C)[C@@H]1CC[C@@H](C)C[C@H]1C(=O)NCc1ccc(C#N)cc1 [Example 25, (1R,2S,5R)-N-(4-cyanobenzyl)-2-isopropyl-5-methylcyclohexanecarboxamide]	2	good icy cooling, slightly astringent	–
CC(C)[C@@H]1CC[C@@H](C)C[C@H]1C(=O)NCc1ccc(S(N)(=O)=O)cc1 [Example 27, (1R,2S,5R)-2-isopropyl-5-methyl-N-(4-sulfamoylbenzyl)-cyclohexanecarboxamide]	2	–	–
CC(C)[C@@H]1CC[C@@H](C)C[C@H]1C(=O)NCc1ccc(C(=O)O)cc1 [Example 28, 4-(((1R,2S,5R)-2-isopropyl-5-methyl-cyclohexanecarboxamido)-methyl)benzoic acid]	2	strong cooling up front, peppery heat	–
CCOC(=O)Cc1ccc(NC(=O)[C@@H]2C[C@H](C)CC[C@H]2C(C)C)cc1 [Example 29, ethyl 2-(4-((1R,2S,5R)-2-isopropyl-5-methylcyclohexane-carboxamido)phenyl)acetate]	2	icy, crisp cool on tongue	–
CC(C)[C@@H]1CC[C@@H](C)C[C@H]1C(=O)Nc1ccccc1C#N [Example 30, (1R,2S,5R)-N-(2-cyanophenyl)-2-isopropyl-5-methylcyclohexane-carboxamide]	2	clean, slightly stronger than menthol	–
CC(C)[C@@H]1CC[C@@H](C)CC1C(=O)Nc1cccc(C#N)c1 (stereo partly drawn) [Example 31, (2S,5R)-N-(3-cyanophenyl)-2-isopropyl-5-methylcyclohexane-carboxamide]	1	weak cooling, tingling, numbing on tongue,	–
CC(C)[C@@H]1CC[C@@H](C)C[C@H]1C(=O)Nc1ccccc1C#N [Example 32]	2	mouthcoating, more cooling than menthol	–
CCNC(=O)C1CC(C)CCC1C(C)C (centres unmarked) [N-ethyl p-menthanecarboxamide (WS-3), N-ethyl p-menthanecarboxamide, reference compound]	–	–	Longevity [1]: 57 min; Concentration [2]: 1.5 ppm
